Test results published in patent publication US7176234B2, “Derivatives of gambogic acid and analogs as activators of caspases and inducers of apoptosis” (priority 2002, dated 2007).
Like-named read-outs stand apart in the source and are kept apart here.

Columns and labels:
T-47D = test: Caspase cascade activation / apoptosis induction assay (N-(Ac-DEVD)-N'-ethoxycarbonyl-R110 substrate) in T-47D cells; format: cell-based, Human; conditions: T-47D, 24 h incubation; for Caspase activity (Ratio): ratio of net RFU to control; for EC50: read-out: Caspase potency EC50
Method: (§1) Human breast cancer cell lines T-47D and ZR-75-1 were grown according to media component mixtures designated by American Type Culture Collection+10% FCS (Invitrogen Corporation), in a 5% CO2-95% humidity incubator at 37° C. T-47D and ZR-75-1 cells were maintained at a cell density between 30 and 80% confluency and for HL-60 at a cell density of 0.1 to 0.6×10^6 cells/ml. Cells were harvested at 600×g and resuspended at 0.65×10^6 cells/mL into appropriate media+10% FCS. An aliquot of 45 μl of cells was added to a well of a 96-well microtiter plate containing 5 μl of a 10% DMSO in RPMI-1640 media solution containing 1.6 to 100 μM of gambogic acid or other test compound (0.16 to 10 μM final). An aliquot of 45 μl of cells was added to a well of a 96-well microtiter plate containing […] of a 10% DMSO in RPMI-1640 media solution without test compound as the control sample. The samples were mixed by agitation and then incubated at 37° C. for 24 h in a 5% CO2-95% humidity incubator. After incubation, the samples were removed from the incubator and 50 μl of a solution containing 20 μM of N-(Ac-DEVD)-N′-ethoxycarbonyl-R110 fluorogenic substrate SEQ ID NO:1 (Cytovia, Inc.; U.S. Pat. No. 6,335,429), 20% sucrose (Sigma), 20 mM DTT (Sigma), 200 mM NaCl (Sigma), 40 mM Na PIPES buffer pH 7.2 (Sigma), and 500 μg/mL lysolecithin (Calbiochem) was added. The samples were mixed by agitation and incubated at room temperature. Using a fluorescent plate reader (Model 1420 Wallac Instruments), an initial reading (T=0) was made approximately 1–2 min after addition of the substrate solution, employing excitation at 485 nm and emission at 530 nm, to determine the background fluorescence of the control sample. After approximately 3 h of incubation, the samples were read for fluorescence as above (T=3 h).
(§2) The Relative Fluorescence Unit values (RFU) were used to calculate the sample readings as follows: RFU(T=3h)−Control RFU(T=0)=Net RFU(T=3h)
(§3) The activity of caspase cascade activation was determined by the ratio of the net RFU value for derivatives of gambogic acid to that of control samples. The EC50 (nM) was determined by a sigmoidal dose-response calculation (Prism 2.0, GraphPad Software Inc.).
Methyl 9,10-dihydro-10-morpholinyl-gambogate and gambogic acid were assayed as described in Example 28 in T47D cells. The samples of cells and testing compound were incubated for 5 h and 24 h, respectively. Table II summarizes the caspase activity (Ratio) and potency (EC50) of methyl 9,10-dihydro-10-morpholinyl-gambogate (compound B) in the 5 h and 24 h assays, in comparison with that of gambogic acid (compound A).

ZR-75-1 = test: Caspase cascade activation / apoptosis induction assay (N-(Ac-DEVD)-N'-ethoxycarbonyl-R110 substrate) in ZR-75-1 cells; format: cell-based, Human; conditions: ZR-75-1, 24 h incubation; for Caspase activity (Ratio): ratio of net RFU to control; for EC50: read-out: Caspase potency EC50
Method: as §1, §2, §3

KB cell line = conditions: cited from earlier work
KB-V1 cell line = conditions: cited from earlier work
[1] = Conversion of methyl 9,10-dihydro-10-morpholinyl-gambogate to methyl gambogate in biological media (HPLC); format: physicochemical; conditions: solution of compound B 5 mg/ml in 87.5% RPMI 1640, 37° C., HPLC peak area
Method: A solution of methyl 9,10-dihydro-10-morpholinyl-gambogate in 87.5% RPMI 1640 biological Media (Invitrogen Corporation, Carlsbad, Calif.), 5.6% EtOH, 1.3% DMSO, and 5.6% Cremophor EL at a concentration of 5 mg/ml was stored at 37° C. The amount of methyl 9,10-dihydro-10-morpholinyl-gambogate (compound B) and methyl gambogate (compound C) was measured by integration of the peak area. The HPLC was run in the Beckman System Gold with 32 Karate software under the following conditions: […]

| EC50 (T-47D) | EC50 (ZR-75-1) | Structure (SMILES) | Caspase activity (Ratio) (T-47D) | Caspase activity (Ratio) (ZR-75-1) | other results |
| --- | --- | --- | --- | --- | --- |
| 1.96 µM | 5.21 µM | CC(C)=CCCC1(C)C=Cc2c(O)c3c(c(CC=C(C)C)c2O1)OC12C(C3=O)C(OCCN(C)C)C3CC1C(C)(C)OC2(C/C=C(/C)C(=O)N1CCN(C)CC1)C3=O (stereo not drawn) [Example 9, 9,10-Dihydro-10-(2-dimethylaminoethoxy)-gambogyl (N-Methylpiperazine)] | 15 | 16 | – |
| 0.592 µM | 1.38 µM | CC(C)=CCCC1(C)C=Cc2c(O)c3c(c(CC=C(C)C)c2O1)OC12C(C3=O)C(N3CCOCC3)C3CC1C(C)(C)OC2(C/C=C(/C)C(=O)N1CCOCC1)C3=O (stereo not drawn) [Example 10, 9,10-Dihydro-10-morpholinyl-gambogyl Morpholine] | 23 | 7.0 | – |
| 0.598 µM | > 10 µM | CC(C)=CCCC1(C)C=Cc2c(O)c3c(c(CC=C(C)C)c2O1)OC12C(C3=O)C(N3CCN(c4ccccn4)CC3)C3CC1C(C)(C)OC2(C/C=C(/C)C(=O)N1CCN(C)CC1)C3=O (stereo not drawn) [Example 7, 9,10-Dihydro-10-[4-(2-pyridyl)piperazinyl]-gambogyl (N-Methylpiperazine)] | 2.2 | 1.6 | – |

Second part, the compound before the results:

| Structure (SMILES) | EC50 (T-47D) | EC50 (ZR-75-1) | Caspase activity (Ratio) (T-47D) | Caspase activity (Ratio) (ZR-75-1) | other results |
| --- | --- | --- | --- | --- | --- |
| CC(C)=CCCC1(C)C=Cc2c(O)c3c(c(CC=C(C)C)c2O1)OC12C(C3=O)C(NCCN3CCOCC3)C3CC1C(C)(C)OC2(C/C=C(/C)C(=O)N1CCN(C)CC1)C3=O (stereo not drawn) [Example 6, 9,10-Dihydro-10-[2-(morpholinyl)ethylamino]-gambogyl (N-Methylpiperazine)] | 0.714 µM | 1.45 µM | 17 | 4.1 | – |
| CC(C)=CCCC1(C)C=Cc2c(O)c3c(c(CC=C(C)C)c2O1)OC12C(C3=O)C(N3CCOCC3)C3CC1C(C)(C)OC2(C/C=C(/C)C(=O)N1CCN(C)CC1)C3=O (stereo not drawn) [Example 4, 9,10-Dihydro-10-morpholinyl-gambogyl (N-Methylpiperazine)] | 1.34 µM | 3.98 µM | 19 | 18 | – |
| CC(C)=CCC[C@]1(C)C=Cc2c(O)c3c(c(CC=C(C)C)c2O1)O[C@]12C(=C[C@@H]4C[C@H]1C(C)(C)O[C@@]2(C/C=C(\C)C(=O)O)C4=O)C3=O [isogambogic acid] | – | – | – | – | Cytotoxicity (KB cell line): cytotoxic; Cytotoxicity (KB-V1 cell line): cytotoxic |
| CC(C)=CCCC1(C)C=Cc2c(O)c3c(c(CC=C(C)C)c2O1)OC12C(C3=O)C(N3CCCCC3)C3CC1C(C)(C)OC2(C/C=C(/C)C(=O)N1CCN(C)CC1)C3=O (stereo not drawn) [Example 5, 9,10-Dihydro-10-piperidinyl-gambogyl (N-Methylpiperazine)] | 0.846 µM | 2.33 µM | 23 | 5.3 | – |
| CC(C)=CCc1c2c(c(O)c3c1OC14C(=CC5CC1C(C)(C)OC4(C/C=C(\C)CO)C5=O)C3=O)C=CC(C)(C)O2 (stereo not drawn) [isomorellinol] | – | – | – | – | Cytotoxicity (KB cell line; KB cell line): cytotoxic; Cytotoxicity (KB-V1 cell line; KB-V1 cell line): cytotoxic |
| COC(=O)/C(C)=C\C[C@@]12OC(C)(C)[C@@H]3C[C@@H](C=C4C(=O)c5c(O)c6c(c(CC=C(C)C)c5O[C@]431)O[C@](C)(CCC=C(C)C)C=C6)C2=O [C, Methyl gambogate] | – | – | – | – | Amount in biological media, 0 h ([1]; 0 h): 4; Amount in biological media, 2 h ([1]; 2 h): 3; Amount in biological media, 18 h ([1]; 18 h): 26; Amount in biological media, 48 h ([1]; 48 h): 48; Amount in biological media, 90 h ([1]; 90 h): 64 |
